The values that follow come from PubChem BioAssay (NCI).

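Growth conditions: 96-well plates. Treatment: test compound, 48 hours, 5 concentrations. Analysis: linear interpolation between bracketing concentrations; unreached endpoints set to highest concentration. Here, GI50 denotes the concentration required for 50% inhibition of growth. TGI denotes the concentration required for complete inhibition of growth.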

One test deals with OVCAR-4 ovarian. The test can be described thus: NCI-60 cell line screen, 48 h.
On to `Fc1cc2[nH]ncc2c2c3c(c(-c4cn[nH]c4)nc12)CCCC3`, for which the GI50 is 1.69 µM and the TGI is 8.14 µM.
In the same order, the values of `C=C1C(=O)O[C@H]2[C@H]1CC/C(COC(=O)c1c[nH]c3ccccc13)=C\CC[C@@]1(C)O[C@@H]21` are 0.258 µM and 0.842 µM.
As to `CCN1CCN(c2nc(C)cc(N(CCNc3ccnc4cc(Cl)ccc34)Cc3ccc4c(c3)OCO4)n2)CC1`, the GI50 is 2.58 µM and the TGI was determined as 11.4 µM.
With `CCN(CC)c1ccc(-c2cc(-c3cc(OC)c(OC)c(OC)c3)nc(N3CCOCC3)c2C#N)cc1`, the GI50 was 7.33 µM and the TGI is more than 100 µM.
For `O=C(CCc1nnc2sc(-c3ccc(Cl)cc3Cl)nn12)c1nc2ncccc2[nH]1`, the GI50 is 1.92 µM and the TGI was found to be 4.26 µM.
On to `NS(=O)(=O)c1cc(Br)c(N=Nc2ccc(O)c3ncccc23)c(Br)c1`, for which the TGI is more than 100 µM.
Consider `COc1ccc(-c2nnc(COc3ccc(C(=O)/C=C/c4ccco4)cc3)o2)cc1`, for which the GI50 was 12.8 µM and the TGI stood at 26.6 µM.
As to `OCc1ccc(-c2ccc(-c3ccc(CO)s3)o2)s1`, the TGI stood at 2.76 µM.
On the same count and under the same terms, then `Cc1ccccc1S(=O)(=O)OC1NS(=O)(=O)c2ccccc21` (stereo not given), with more than 100 µM.
With `O=C(Nc1ccc(Cl)cc1)c1cccc(NC2=C(Cl)C(=O)N(Cc3ccccc3)C2=O)c1`, the GI50 was 12.5 µM and the TGI is 34.8 µM.
Consider `Cc1cc(/C=C/c2ccc3cc(N(C)C)ccc3[n+]2C)c(C)n1-c1ccccc1`, for which the GI50 was 0.0723 µM and the TGI was 5.23 µM.
For `CC[C@H](Nc1ncnc2nc[nH]c12)c1oc2ccccc2c(=O)c1-c1cccc(F)c1`, in that order: 23.1 µM and more than 100 µM.
`COc1cc(NCc2ccc3oc(=O)c(-c4ccccc4)nc3c2)cc(OC)c1OC` registered a TGI of more than 10 µM.
On to `COc1ccc(-c2nnc(COc3ccc(NC(=O)Nc4cc(C(F)(F)F)cc(C(F)(F)F)c4)cc3F)o2)cc1`, for which the GI50 is 2.29 µM and the TGI was 8.53 µM.
Take `COC1=CC(=O)C(C2CC(=O)c3c(O)cc(O)cc3O2)=CC1=O` (stereo not given): the TGI was 36.5 µM.
Take `COc1cc(/C=C/c2cc(O)c(C(C)=O)c(O)c2)cc2c1O[C@]1(C)CC[C@@H](O)C(C)(C)[C@H]1C2`: the GI50 is 13.5 µM and the TGI was found to be 74.5 µM.
Molecule `CC(C)C(C)/C=C\C(C)C1CCC2C3=CC=C4CC(O)CCC4(C)C3CCC21C` (stereo not given) yielded a TGI of more than 100 µM.

Another test deals with NCI/ADR-RES ovarian. The test can be described thus: NCI-60 cell line screen, 48 h.
For `Fc1cc2[nH]ncc2c2c3c(c(-c4cn[nH]c4)nc12)CCCC3`, the GI50 is 2.38 µM and the TGI was found to be 7.9 µM.
For the molecule `C=C1C(=O)O[C@H]2[C@H]1CC/C(COC(=O)c1c[nH]c3ccccc13)=C\CC[C@@]1(C)O[C@@H]21`, the GI50 is 0.397 µM and the TGI came to 11 µM.
In the same order, the values of `CCN1CCN(c2nc(C)cc(N(CCNc3ccnc4cc(Cl)ccc34)Cc3ccc4c(c3)OCO4)n2)CC1` are 2.82 µM and 10.8 µM.
In the same order, the values of `CCN(CC)c1ccc(-c2cc(-c3cc(OC)c(OC)c(OC)c3)nc(N3CCOCC3)c2C#N)cc1` are 0.709 µM and 27.8 µM.
For `O=C(CCc1nnc2sc(-c3ccc(Cl)cc3Cl)nn12)c1nc2ncccc2[nH]1`, in that order: 2.71 µM and 9.12 µM.
For the molecule `NS(=O)(=O)c1cc(Br)c(N=Nc2ccc(O)c3ncccc23)c(Br)c1`, the TGI was 65.5 µM.
For `COc1ccc(-c2nnc(COc3ccc(C(=O)/C=C/c4ccco4)cc3)o2)cc1`, the GI50 is 8.62 µM and the TGI is 25 µM.
`OCc1ccc(-c2ccc(-c3ccc(CO)s3)o2)s1` displayed a TGI of 71.5 µM.
On the same count and under the same terms, the same measure for `Cc1ccccc1S(=O)(=O)OC1NS(=O)(=O)c2ccccc21` (stereo not given): more than 100 µM.
For the molecule `O=C(Nc1ccc(Cl)cc1)c1cccc(NC2=C(Cl)C(=O)N(Cc3ccccc3)C2=O)c1`, the GI50 was 10.3 µM and the TGI worked out at 24.3 µM.
For `Cc1cc(/C=C/c2ccc3cc(N(C)C)ccc3[n+]2C)c(C)n1-c1ccccc1`, in that order: 1.67 µM and 13.4 µM.
For `CC[C@H](Nc1ncnc2nc[nH]c12)c1oc2ccccc2c(=O)c1-c1cccc(F)c1`, in that order: 21.3 µM and more than 100 µM.
Molecule `COc1cc(NCc2ccc3oc(=O)c(-c4ccccc4)nc3c2)cc(OC)c1OC` displayed a TGI of more than 10 µM.
`COc1ccc(-c2nnc(COc3ccc(NC(=O)Nc4cc(C(F)(F)F)cc(C(F)(F)F)c4)cc3F)o2)cc1`: the GI50 was 1.91 µM and the TGI was 5.16 µM.
For `COC1=CC(=O)C(C2CC(=O)c3c(O)cc(O)cc3O2)=CC1=O` (stereo not given), the TGI turned out to be 46.5 µM.
With `COc1cc(/C=C/c2cc(O)c(C(C)=O)c(O)c2)cc2c1O[C@]1(C)CC[C@@H](O)C(C)(C)[C@H]1C2`, the GI50 is 14.3 µM and the TGI was determined as 65.8 µM.
On to `CC(C)C(C)/C=C\C(C)C1CCC2C3=CC=C4CC(O)CCC4(C)C3CCC21C` (stereo not given), for which the TGI was more than 70.7 µM.

In a further test the test system is A549 NSCLC. The test can be described thus: NCI-60 cell line screen, 48 h.
As for `Fc1cc2[nH]ncc2c2c3c(c(-c4cn[nH]c4)nc12)CCCC3`, the GI50 was 0.844 µM and the TGI is more than 100 µM.
In the same order, the values of `C=C1C(=O)O[C@H]2[C@H]1CC/C(COC(=O)c1c[nH]c3ccccc13)=C\CC[C@@]1(C)O[C@@H]21` are 1.5 µM and 3.3 µM.
Turning to `CCN1CCN(c2nc(C)cc(N(CCNc3ccnc4cc(Cl)ccc34)Cc3ccc4c(c3)OCO4)n2)CC1`, the GI50 is 2.4 µM and the TGI was determined as 8.19 µM.
As for `CCN(CC)c1ccc(-c2cc(-c3cc(OC)c(OC)c(OC)c3)nc(N3CCOCC3)c2C#N)cc1`, the GI50 was 1.37 µM and the TGI is more than 100 µM.
For `O=C(CCc1nnc2sc(-c3ccc(Cl)cc3Cl)nn12)c1nc2ncccc2[nH]1`, in that order: 2.78 µM and 10.4 µM.
In the case of `NS(=O)(=O)c1cc(Br)c(N=Nc2ccc(O)c3ncccc23)c(Br)c1`, the TGI was 60.7 µM.
As to `COc1ccc(-c2nnc(COc3ccc(C(=O)/C=C/c4ccco4)cc3)o2)cc1`, the GI50 is 3.33 µM and the TGI amounted to 13.8 µM.
`OCc1ccc(-c2ccc(-c3ccc(CO)s3)o2)s1` yielded a TGI of 48.1 µM.
